The values that follow come from US9737525B2, “Small molecule activators of NRF2 pathway” (The General Hospital Corporation, priority 2013, dated 2017).

Series [1] deals with primary cortical neurons expressing 140Q full-length mutant huntingtin. In words: Neuronal viability assay (MTT), wild type and HD primary cortical neurons. The format is cell-based, mouse. The settings on record: for Cytotoxicity in primary neurons: 0.5 μM and higher. As to the method: Embryonic tissue from wild type and 140Q mouse brains (E15-E17 days into pregnancy) was used to isolate and plate cortical neurons as described (Valencia et al., 2013). Neurons were plated at 8×10^5 cell/ml in a 24-well plate supplemented with 25 μM of L-glutamate and 10 μM of 2-β-mercapto-ethanol (Gibco). Plates were previously coated with poly-L-lysine (30-70 kDa, SIGMA) in borate buffer at pH 8.0 and coated again using DMEM/F12+FBS 10% for 2 hours prior to plating. After 3 days in culture, neurons were treated with 10 μM of β-D-cytosine arabinofurinoside for 24 hours to prevent the proliferation of non-neuronal cells.
Neurons were supplemented with MIND4 at different concentrations 0, 0.1, 0.25 and 0.5 μM at days in vitro 4, 6 and 8 (FIG. 3A). […] To maintain drug concentrations, half of the culture media was replenished with fresh media at each time point and MIND4 treatment doses were adjusted accordingly. Cell viability was measured at DIV 10 as previously described based on the ability of viable neurons to transformed MTT (3-(4,5-Dimethylthiazol-2-yl)-2,5-diphenyltetrazolium bromide) into formazan blue crystals (Valencia et al., 2013). Neurons were incubated with 0.5 mg/ml of MTT for 15 minutes, media was then discarded and formazan blue crystals were dissolved in DMSO 100% and read at 540 nm in a Vector plate reader. Results are expressed as Mean±Standard deviation absorbance units at 540 nm (AU). P values were obtained using a Student's t-test from an N=6 wells per condition for treated wild type and HD neurons.
Cell survival was measured as MTT transformation at 10 days in vitro (DIV). Neurons were treated three times with the compounds at 4, 6 and 8 DIV at the indicated concentrations. Two independent experiments were performed with a total of 13 embryos per genotype, 6 WT and 7 HD respectively; 6 wells were used for each experimental condition (compound dose).

Series [2] concerns NRF2-target proteins NQO1 and GCLM. The series can be described thus: NQO1 and GCLM proteins in wild type mouse cortical neurons (immunoblotting). The format is cell-based. The settings on record: wild type mouse cortical neurons (6 DIV), 24 hr. As to the method:
To assess protein levels, cell extracts were prepared from cells washed with PBS and lysed with buffer containing 2% SDS, Complete EDTA-free Protease Inhibitor Cocktail (Roche) and 1 mM phenylmethylsulfonyl fluoride. To prepare brain extracts for analysis, frozen mouse cortical tissues were homogenized in PBS containing protease inhibitors with an Kontes Pellet Pestle (Kimble/Kontes). They were later sonicated and lysed overnight at 4° C. in 2× volume of lysis buffer containing 2% SDS and protease inhibitors. Protein concentrations in ST14A cell extracts and homogenized cortical tissues were evaluated using a BCA analysis kit and normalized. Samples were prepared in a SDS buffer containing DTT and separated on bis-acrylamide protein gels via electrophoresis and transferred onto a 0.2 μm PVDF membrane). Membranes were probed for NQO1 (Sigma N5288, 1:1,000), GCLM, (Abcam ab126704, 1:800), SIRT2 (Sigma S8447, 1:2,500), histone H3 (Cell Signaling 4499, 1:2,000), acetylated H3 (K56) (Millipore 04-1135, 1:500), TNFα (Abcam ab1793, 1:1,500), GADPH (Millipore MAB374, 1:10,000), actin (Sigma A2066, 1:1250), α-tubulin (Sigma T6074, 1:20,000), and acetylated α-tubulin (Sigma T6793, 1:2,500) overnight in 5% milk in PBST at 4° C. on a rocker. Membranes were thrice washed in PBST for 15 min on a shaker and incubated in either an anti-rabbit-HRP (Bio-Rad 170-5046, 1:10,000) or anti-mouse-HRP (Sigma A3682, 1:4,000) secondary solution as appropriate in 3% milk in PBST for 1 hr at room temperature on a rocker. After four washes of 15 min in PBST on a shaker, blots were visualized using SuperSignal West Pico Chemiluminescent Substrate (Pierce 34080) or SuperSignal West Dura Extended Duration Substrate (Thermo 34075) and exposed on Scientific Imaging Film (Kodak 864 6770).
Dose-response induction of NRF2-target proteins NQO1 and GCLM in wild type mouse cortical neurons (6 DIV) treated with MIND4 and MIND4-17 for 24 hr was consistent with the compound effects on ARE-dependent gene transcription (FIG. 24E).

The mark [3] stands for this setting: 0.25 μM, treated at 4, 6 and 8 DIV, MTT at 10 DIV.

Consider `O=[N+]([O-])c1ccc(Sc2nnc(COc3ccccc3)n2-c2ccccc2)c2ncccc12` [MIND4, 5-nitro-8-{[5-(phenoxymethyl)-4-phenyl-4H-1,2,4-triazol-3-yl]thio}quinoline], for which the “Survival of HD neurons” value in series [1] (0.1 μM) is “partially improved survival”; in series [1] (0.1 μM and 0.25 μM, treated at DIV 4, 6, 8, MTT at DIV 10), “improved survival of HD neurons at both doses”; in series [1] (setting [3]), “enhanced survival of HD neurons”. For the same molecule, the “Cytotoxicity in primary neurons” value in series [1] is recorded as “cytotoxic”. In addition, the “Effect on control cortical neurons from wild type mice” value in series [1] (7 days of treatment) was “No effects”. Moreover, the “Expression of NQO1 protein” value in series [2] was “increased the expression of NQO1 protein to the same extent”.
On to `O=[N+]([O-])c1ccc(Sc2nnc(COc3ccccc3)n2-c2ccccc2)nc1` [MIND4-17], for which, in series [1] (setting [3]), the “Survival of HD neurons” value was “enhanced survival of HD neurons”. Moreover, the “Cytotoxicity in primary neurons” value in series [1] is “cytotoxic”. Besides, in series [2], the “Expression of NQO1 protein” value was “increased the expression of NQO1 protein to the same extent” and the GCLM expression result was “more potent inducer of GCLM expression”.
